Measured values as given in article PMC13108699, “Mass balance and metabolite profiling of ^14C-Zalunfiban in humans following single-dose subcutaneous administration” (Xenobiotica; the fate of foreign compounds in biological …, 2025).
“And” between values parts separate entries of the source, which are not always exact repeats. Equal entries are not always repeated.

Columns and labels:
platelet aggregation = experiment: In vitro inhibition of ADP-induced platelet aggregation in platelet-rich plasma; assay type: cell-based, human; conditions: Homo sapiens, Platelet, 20 min; PRP, 20 min at 22°C, ADP-initiated aggregation
Protocol: Ten mL of whole blood was collected from healthy human donors via venipuncture and treated with an anticoagulant (D-phenylalanyl-prolyl-arginyl chloromethyl ketone). From this, platelet-rich plasma (PRP) was prepared by centrifuging whole blood at room temperature at 650 × g for 4 min. PRP was removed and standardised to a uniform platelet concentration of 3.0 × 10^5/μL, using platelet poor plasma as a diluent, where necessary. […] Platelet aggregation was measured using an aggregometer (PAP-8E C/N 106075; Bio/Data Corp, Horsham PA). For M1 a range of concentrations was tested to produce a single fitted curve, and the Levenberg-Marquardt approach was used to calculate IC50 values.

[1] = Safety assessments (adverse events, laboratory, vital signs, ECG); assay type: in vivo, human; conditions: for Tolerability: single SC 9.5 mg, 8 healthy males
Protocol: The study was reviewed, approved, and monitored by both an independent Institutional Review Board and a Data Safety Monitoring Board, and the protocol was performed under an Investigational New Drug Application. The safety of single-dose SC zalunfiban was evaluated by monitoring adverse events, clinical laboratory data, vital signs, 12-lead electrocardiogram, and physical examination. Vital signs (blood pressure, heart rate, body temperature, respiratory rate) were measured at screening, admission, pre-dose, post-dose at 1, 4, 8, hours, and in the morning on study days 2–11. Safety laboratory tests included serum chemistry, haematology, coagulation, and urinalysis, and were performed at screening, admission, and on study days 1, 4, and 11. On day 1, additional platelet counts were performed post-dose at 2, 6, and 12 h. […] Participants were continuously monitored for adverse events (AEs) and new use of medication(s).
During the study, AEs were collected from the time of informed consent to the last time the participant was seen. Any AE that occurred after the start of study drug administration was considered a treatment-emergent AE (TEAE). The investigator or designee assessed the severity of all AEs using the toxicity grading scale in National Cancer Institute Common Terminology Criteria for Adverse Events v5.0. These scales assign a grade of 1 through 5 to indicate the severity of AEs.

[2] = Whole blood total radioactivity (AMS) PK after SC ^14C-zalunfiban; assay type: in vivo, human
Protocol: The planned participant enrolment size was 8, with 2 additional alternate participants available on the morning of dosing. Following a 28-day screening period, all eligible participants were admitted to the research unit the evening before dosing. After fasting overnight, participants completed a standard breakfast prior to dosing on study day 1. After dosing, subjects fasted for 4 h. Fluids were permitted ad libitum starting 1-hour after dosing. […] The clinical study was conducted at the Pharmaron Clinical Pharmacology Centre (Baltimore, MD) and the study protocol, consent forms and regulatory documents were reviewed and approved by the […] Institutional Review Board (Columbia, MD). All participants received the same fixed mass dose of SC 9.5 mg ^14C-zalunfiban (5 μCi), in 0.5 mL of formulation solution. This zalunfiban dose was chosen to both ensure participant safety and to make certain the study results were clinically relevant. For the latter, by strict inclusion of participants with a body weight within the range of 73-99 kg, the zalunfiban doses were no higher than the highest administered in the currently ongoing Phase 3 study, which includes three groups of 0.110 mg/kg zalunfiban, 0.130 mg/kg zalunfiban, and placebo ([NIH 2025]). The ^14C radiolabel dose of 5 μCi presented minimal radiation risk to healthy subjects while providing a high likelihood of meeting the study objectives. […] At the laboratory, extraction of ^14C-zalunfiban from whole blood was achieved by repeated microcentrifugation, vortex mixing, and harvesting to collect analytes (see Metabolite profiling and excretion for more details). […] Whole blood samples were analysed using accelerator mass spectrometry (AMS). Urine sample analysis was performed using liquid scintillation counting analysis. Each sample was counted for at least 10 min or until the 2%2σ terminator was reached. Homogenised faeces samples were combusted in a Perkin Elmer, Model 307 sample oxidiser (Perkin Elmer, Waltham MA). […] For urine and faeces samples, total radioactivity analysis was initially performed using two liquid scintillation counters (LSC), a TriCarb 3180 TR/SL and a TriCarb 5110 TR (Perkin Elmer, Waltham MA). When the measured total radioactivity concentration was above the LLOQ, LSC data were reported. For LSC, the LLOQ was defined as twice the background count rate. If the radioactivity concentration was below the limit of quantification (BLOQ), samples were analysed by Accelerator Mass Spectrometry (AMS). For AMS analysis, the LLOQ for total radioactivity depends on multiple factors, including the carbon content of the sample, and it is provided as the mean of all participant values. The mean (SD) total radioactivity LLOQ for zalunfiban in whole blood was 0.2421 (0.0571) ngEq/mL, for faeces 0.0663 (0.0135) ngEq/gm, and urine 0.0088 (0.0029) ngEq/g. Zalunfiban and whole blood radioactivity concentrations were used to calculate PK parameters using standard non-compartmental analysis (NCA) methods using Phoenix WinNonlin software (Phoenix, Princeton, NJ). All statistical programming and tables, figures and listings were carried out using SAS 9.4 (SAS Institute, Inc., Cary, NC).

Q: For NCC(=O)Nc1cncc(-c2nn3c(=O)cc(N4CCNCC4)nc3s2)c1 [Zalunfiban, 2-amino-N-{5-[5-oxo-7-(piperazin-1-yl)-5H-[1,3,4]thia-diazolo[3,2-a]pyrimidin-2-yl]pyridin-3-yl}acetamide], which IC50 (platelet aggregation) is on record?
A: 112 nM

Q: And the TEAE headache ([1]; 1 grade 1 and one grade 2, of 8 dosed)?
A: 2 participants

Q: And the “Changes in clinical laboratory tests, vital signs, or ECGs” value ([1]; 8 dosed)?
A: no observed clinically significant changes

Q: What about the “Serious TEAEs” value ([1]; 8 dosed) of the same molecule?
A: no serious TEAEs

Q: What about the “TEAEs leading to study discontinuation” value ([1]; 8 dosed) of the same molecule?
A: no TEAEs leading to study discontinuation

Q: And the TEAE confusion ([1]; grade 1, of 8 dosed)?
A: 1 participant

Q: And the “TEAE injection site bruising” value ([1]; grade 1, of 8 dosed)?
A: 1 participant

Q: What about the “TEAE injection site pain” value ([1]; grade 1, of 8 dosed) of the same molecule?
A: 1 participant

Q: And the “Participants with Grade 1 AEs” value ([1]; of 8 dosed)?
A: 4 participants

Q: And the “Participants with a Grade 2 AE” value ([1]; of 8 dosed)?
A: 1 participant

Q: And the Tolerability [1]?
A: well-tolerated

Q: What about the Tolerability ([1]; listed as 14C-zalunfiban) of the same molecule?
A: safe and well-tolerated

Q: And the “Time of first detection of whole blood radioactivity” value ([2]; all participants)?
A: 5 min

Q: What about the “Time to which whole blood total radioactivity remained quantifiable” value ([2]; all subjects except one (216 h)) of the same molecule?
A: up to 240 h

Q: What about the “Mean whole blood zalunfiban/total radioactivity expressed as a percentage, AUC0–4” value ([2]; first 4 h after dose) of the same molecule?
A: 35.6% and 35%

Q: And the “t1/2, whole blood total radioactivity” value ([2]; mean, overall (0.5 h to 240 h), n=8)?
A: 98.3 h

Q: And the “Mean whole blood zalunfiban/total radioactivity expressed as a percentage, AUC0-inf” value ([2]; to be interpreted with caution (different assay sensitivity))?
A: 15.1%
